Values quoted from earlier work in patent publication US20030073069A1, “Drug rescue by redesign of ADMET/PK properties” (priority 2001, published 2003).
Like-named read-outs stand apart in the source and are kept apart here.

Key:
[1] = FIG. 8
P450 [2] = test system: P450
P450 [3] = settings: induction of a P450
[4] = development for memory enhancement abandoned
CYP 3A4 = CYP 3A4 (Homo sapiens, UniProt P08684); settings: indicates a reactive intermediate formed by CYP 3A4 metabolism
Sequence of CYP 3A4 (P08684 whole entry): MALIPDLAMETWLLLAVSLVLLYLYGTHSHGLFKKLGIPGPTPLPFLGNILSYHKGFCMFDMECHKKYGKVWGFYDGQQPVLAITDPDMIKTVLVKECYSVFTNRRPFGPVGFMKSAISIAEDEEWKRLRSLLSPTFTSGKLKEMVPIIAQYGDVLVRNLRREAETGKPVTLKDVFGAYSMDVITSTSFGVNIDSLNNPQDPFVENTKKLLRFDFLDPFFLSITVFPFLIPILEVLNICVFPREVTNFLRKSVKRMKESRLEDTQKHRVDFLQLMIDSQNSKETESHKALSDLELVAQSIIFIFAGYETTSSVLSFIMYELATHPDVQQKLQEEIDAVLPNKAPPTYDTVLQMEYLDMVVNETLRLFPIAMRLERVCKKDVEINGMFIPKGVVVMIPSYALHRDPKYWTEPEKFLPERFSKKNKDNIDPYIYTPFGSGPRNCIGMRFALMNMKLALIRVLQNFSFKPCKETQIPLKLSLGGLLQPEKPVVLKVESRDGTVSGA

Structure (SMILES) | No. of currently known drug interactions that involve the compound, Inhibition (P450 [2]) | No. of currently known drug interactions that involve the compound, Induction (P450 [3]) | No. of currently known drug interactions that involve the compound, Inhibition (P450 [2]; inhibition of a P450) | further results
CN(C)Cc1nnc2n1-c1ccc(Cl)cc1C(c1ccccc1)=NC2 [adinazolam] |  |  |  | bioavailability, experimentally observed [1]: low; half lives, experimentally observed [1]: short
Cc1nnc2n1-c1ccc(Cl)cc1C(c1ccccc1)=NC2 [alprazolam] | 15 | 3 |  | 
CN(C)CCC=C1c2ccccc2CCc2ccccc21 [amitriptyline] |  | 11 | 5 | 
NC(=O)N1c2ccccc2C=Cc2ccccc21 [carbamazepine] |  | 9 | 3 | 
CNC1=Nc2ccc(Cl)cc2C(c2ccccc2)=[N+]([O-])C1 [chlordiazepoxide] | 7 | 3 |  | 
CC[C@H]1OC(=O)[C@H](C)[C@@H](O[C@H]2C[C@@](C)(OC)[C@@H](O)[C@H](C)O2)[C@H](C)[C@@H](O[C@@H]2O[C@H](C)C[C@H](N(C)C)[C@H]2O)[C@](C)(OC)C[C@@H](C)C(=O)[C@H](C)[C@@H](O)[C@]1(C)O [clarithromycin] |  | 1 | 1 | 
CN(C)CCCN1c2ccccc2CCc2ccc(Cl)cc21 [clomipramine] |  | 11 | 5 | 
O=C1CN=C(c2ccccc2Cl)c2cc([N+](=O)[O-])ccc2N1 [clonazepam] | 10 | 3 |  | 
O=C(O)C1N=C(c2ccccc2)c2cc(Cl)ccc2NC1=O (stereo not drawn) [clorazepate] | 7 | 3 |  | 
CN1CCN(C2=Nc3cc(Cl)ccc3Nc3ccccc32)CC1 [clozapine] |  | 1 | 2 | 
CNCCCN1c2ccccc2CCc2ccccc21 [desipramine] |  | 1 | 4 | 
CN(C)CCC=C1c2ccccc2COc2ccccc21 [doxepin] |  | 11 | 4 | 
Clc1ccc2c(c1)C(c1ccccc1)=NCc1nncn1-2 [estazolam] | 7 | 3 |  | 
CCOC(=O)C1=C(C)NC(C)=C(C(=O)OC)C1c1cccc(Cl)c1Cl (stereo not drawn) [felodipine] |  | 4 | 1 | 
CCN(CC)CCN1C(=O)CN=C(c2ccccc2F)c2cc(Cl)ccc21 [flurazepam] | 7 | 3 |  | 
O=C1CN=C(c2ccccc2)c2cc(Cl)ccc2N1CC(F)(F)F [halazepam] | 7 | 3 |  | 
C[C@]12CCC(=O)C=C1CC[C@@H]1[C@@H]2[C@@H](O)C[C@@]2(C)[C@H]1CC[C@]2(O)C(=O)CO [hydrocortisone] |  | 14 | 1 | 
CN(C)CCCN1c2ccccc2CCc2ccccc21 [imipramine] |  | 11 | 5 | 

Structure (SMILES) | No. of currently known drug interactions that involve the compound, Inhibition (P450 [2]) | No. of currently known drug interactions that involve the compound, Induction (P450 [3]) | No. of currently known drug interactions that involve the compound, Inhibition (P450 [2]; inhibition of a P450) | further results
CCC1(c2ccccc2)NC(=O)N(C)C1=O (stereo not drawn) [mephenytoin] |  | 2 | 4 | 
C[C@H]1C[C@@H]2[C@H]([C@@H](O)C[C@@]3(C)[C@H]2CC[C@]3(O)C(=O)CO)[C@@]2(C)C=CC(=O)C=C12 [methylprednisolone] |  | 14 | 1 | 
Cc1ncc2n1-c1ccc(Cl)cc1C(c1ccccc1F)=NC2 [midazolam] | 15 | 3 |  | bioavailability, experimentally observed [1]: low; half lives, experimentally observed [1]: short
COC(=O)C1=C(C)NC(C)=C(C(=O)OCC(C)C)C1c1ccccc1[N+](=O)[O-] (stereo not drawn) [nisoldipine] |  | 4 | 3 | 
CNCCC=C1c2ccccc2CCc2ccccc21 [nortriptyline] |  | 11 | 4 | 
O=C1NC(=O)C(c2ccccc2)(c2ccccc2)N1 [phenytoin] |  | 1 | 4 | 
C[C@]12C=CC(=O)C=C1CC[C@@H]1[C@@H]2[C@@H](O)C[C@@]2(C)[C@H]1CC[C@]2(O)C(=O)CO [prednisolone] |  | 10 | 1 | 
Fc1ccccc1C1=NCC(=S)N(CC(F)(F)F)c2ccc(Cl)cc21 [quazepam] | 7 | 3 |  | 
C=C[C@H]1C[N@@]2CC[C@H]1C[C@@H]2[C@@H](O)c1ccnc2ccc(OC)cc12 [quinidine] |  | 13 | 4 | 
C=CC[C@@H]1/C=C(\C)C[C@H](C)C[C@H](OC)[C@H]2O[C@@](O)(C(=O)C(=O)N3CCCC[C@H]3C(=O)O[C@H](/C(C)=C/[C@@H]3CC[C@@H](O)[C@H](OC)C3)[C@H](C)[C@@H](O)CC1=O)[C@H](C)C[C@@H]2OC [tacrolimus] |  | 3 | 4 | 
CCCCCNC(=N)N/N=C/c1c[nH]c2ccc(OC)cc12 [tegaserod] |  |  |  | ability to breach the Blood-Brain-Barrier, as found [4]: not to breach the Blood-Brain-Barrier
C[C@]12C=CC(=O)C=C1CC[C@H]1[C@@H]3C[C@@H](O)[C@](O)(C(=O)CO)[C@@]3(C)C[C@H](O)[C@@]12F [triamcinolone] |  | 10 |  | 
Cc1nnc2n1-c1ccc(Cl)cc1C(c1ccccc1Cl)=NC2 [triazolam] | 15 | 3 |  | 
CC(CN(C)C)CN1c2ccccc2CCc2ccccc21 (stereo not drawn) [trimipramine] |  | 9 | 4 | 
Cc1c(C)c2c(c(C)c1O)CCC(C)(COc1ccc(CC3SC(=O)NC3=O)cc1)O2 (stereo not drawn) [troglitazone] |  |  |  | inhibition of CYP 3A4 (CYP 3A4): time and NADPH-dependent inhibition
CC(=O)CC(c1ccccc1)c1c(O)c2ccccc2oc1=O (stereo not drawn) [warfarin] |  | 2 | 12 | 
Cc1ccc(-c2nc3ccc(C)cn3c2CC(=O)N(C)C)cc1 [zolpidem] | 2 | 2 |  | 
